Measured values published in patent US20100130359A1 (priority 2007, published 2010).

How the values were obtained:
Phytophthora infestans = assay type: in vivo, Phytophthora infestans on tomato plants; settings: 250 ppm active compound, sprayed one day before infection, assessed after 6 days; untreated plants 80% infected
Septoria tritici = assay: Protective activity against Septoria leaf blotch of wheat caused by Septoria tritici; assay type: in vivo, Septoria tritici on wheat seedlings; settings: 250 ppm active compound, sprayed six days after inoculation, assessed after 14 days; untreated plants 90% infected
Protocol: The active compounds were prepared as a stock solution comprising 25 mg of active compound which was made up to 10 ml using a mixture of acetone and/or DMSO and the emulsifier Uniperol® EL (wetting agent having emulsifying and dispersing action based on ethoxylated alkylphenols) in a volume ratio of solvent/emulsifier of 99/1. The mixture was then made up to 100 ml with water. This stock solution was diluted with the solvent/emulsifier/water mixture described to the concentration of active compounds stated below. Alternatively, the active compounds were used as a commercial finished formulation and diluted with water to the stated active compound concentration.
Leaves of potted wheat seedlings were inoculated with a spore suspension of the leaf blotch disease Septoria tritici. The test plants were then placed in a greenhouse at temperatures between 20 and 22° C. and a relative atmospheric humidity of close to 100% and then at temperatures between 16 and 18° C. and an atmospheric humidity of about 70% for 4 days. Six days after the inoculation, the plants were sprayed to runoff point with an aqueous active compound solution having the concentration stated below. After the spray coating had dried on, the plants were returned. After 14 days, the extent of the development of the disease was determined visually in % infection of the entire leaf area.

SMILES: Cc1nnc(Cl)c(-c2c(F)cc(OCCCN(C)C)cc2F)c1-c1ccc(Cl)cc1 [Compound I-1, (3-{-4-[3-chloro-5-(4-chlorophenyl)-6-methylpyridazin-4-yl]-3,5-difluorophenoxy}propyl)dimethylamine]
- infection of treated tomato plants (late blight), determined visually (Phytophthora infestans): no infection
- infection of the entire leaf area of treated wheat plants, determined visually (Septoria tritici): 10%
